Data published in PMC9673804, “Design, synthesis and antitumor evaluation of novel pyrazolo[3,4-d]pyrimidines incorporating different amino acid conjugates as potential DHFR inhibitors” (Journal of Enzyme Inhibition and Medicinal Chemistry, 2022).

Test system: human prostate cancer (PC-3)
Assay: SRB cytotoxicity assay, PC-3
Assay type: cell-based
Details: PC-3 cells
Description: The SRB colorimetric assay was employed to assess the synthesized compounds’ cytotoxic effects on several cancer cell lines (Table 1)[11–14]. […] Furthermore, the effect of tested compounds was evaluated on the normal immortalized HPDE cell line.
Sulforhodamine B (SRB) assay was employed to assay in-vitro antitumor activities of all the synthesised compounds as describer previously. […] The cell lines were obtained from the American Type Culture Collection (Rockville, USA).

N=C(N)NCCCC(NC(=O)c1ccc(Nc2ncnc3c2cnn3-c2ccccc2)cc1)C(=O)O (stereo not shown) [Compound 7f, 5-Guanidino-2-{4-[(1-phenyl-1H-pyrazolo[3,4-d]pyrimidin-4-yl)amino]benzamido}pentanoic acid]
IC50: 6.29 ± 0.56 µM
